Measured values taken from patent US7256006B2, “Method for determining the influence of a test substance on the heart activity of a vertebrate” (Multi Channel Systems MCS GmbH, priority 2003, dated 2007).
Structures can show the parent of a compound that is named as a salt. Where two headings read alike, the source gives them in different places.

What was measured:
[1] = tested on: ventricular myocytes from chicken embryos; assay: extracellular MEA field potential (FPdur) measurement on spontaneously beating heart cells; format: cell-based
Procedure: The heart muscle cells were obtained by trypsin digestion of the isolated ventricle of chicken embryos (10-12 days after fertilization). The heart was freed of blood vessels and atria. The cells were cultured in MEM medium supplemented with 10% fetal calf serum (FCS). One to two days before the measurement, the medium was replaced by standard Tyrode solution.
The standard Tyrode solution was then replaced by a Tyrode solution with 5 μM of a test substance and the change in FPdur was determined. Thereafter, the concentration of the test substance was increased in logarithmic steps. A measurement was now taken every 10 minutes.
In measurements with quinidine, 0.5% DMSO was added to the cell Tyrode since quinidine is not water-soluble. The control experiment was also carried out with DMSO here.
In these qualitative evaluations, i.e. comparison of data from the respective control experiment and the data derived from addition of the QT-modifying substance, possible changes in the heart rate were taken into account.
For the normalized case, the FPdur value was divided by the square root of the time span (in seconds) between two action potentials.

[2] = literature reference; cited from earlier work
[3] = tested on: ventricular myocytes from chicken embryos; assay: extracellular MEA field potential (FPdur) measurement on spontaneously beating heart cells; format: cell-based; settings: submicromolecular concentrations

## CC(C)(C(=O)O)c1ccc(C(O)CCCN2CCC(C(O)(c3ccccc3)c3ccccc3)CC2)cc1 (centres unmarked) [fexofenafine]
[1]
  effect on the QT interval: prolongating effect

## COc1cc2c(cc1OC)CC(=O)N(CCCN(C)C[C@H]1Cc3cc(OC)c(OC)cc31)CC2 [ivabradine]
[1]
  effect on the QT interval: No QT prolongation

## C=C[C@H]1C[N@@]2CC[C@H]1C[C@@H]2[C@@H](O)c1ccnc2ccc(OC)cc12 [quinidine]
[1]; FIG. 2B, indicated quinidine concentrations for 200 seconds
  QT prolongation (increase in FPdur): QT prolongation increasing with concentration
[1]; chicken, 10 min
  concentrations at which QT prolongations are shown in vitro in the MEA system: 2 to 7 µM
[1]; summary of substances tested by the inventors
  effect on the QT interval: prolongating effect
[2]
  effect on QT: QT-prolonging effect

## COc1ccc(CCN2CCC(Nc3nc4ccccc4n3Cc3ccc(F)cc3)CC2)cc1 [astemizol]
[1]
  effect on the QT interval: prolongating effect

## Cc1cccc(CCN2CCC(C(=O)c3ccc(NS(C)(=O)=O)cc3)CC2)n1.Cl.Cl [E4031]
[3]
  prolongation of the ventricular action potential: over 90%

## CC1(C)Oc2ccc(S(=O)(=O)c3ccccc3)cc2[C@@H](N2CCCC2=O)[C@@H]1O [rilmakalim]
[1]
  prolongation of the field potential: did not prolong the field potential
[1]; substance with so far unknown effect on QT interval
  beating frequency: reduced the frequency

## COc1cc(N)c(Cl)cc1C(=O)NC1CCN(CCCOc2ccc(F)cc2)CC1OC (centres unmarked) [cisapride]
[1]
  effect on the QT interval: prolongating effect

## CC(C)(C)c1ccc(C(O)CCCN2CCC(C(O)(c3ccccc3)c3ccccc3)CC2)cc1 (centres unmarked) [terfenadin]
[1]
  effect on the QT interval: prolongating effect

## CC(C)NCC(O)c1ccc(NS(C)(=O)=O)cc1 (centres unmarked) [sotalol, N-[4-[1-hydroxy-2-(isopropylamino)ethyl]phenyl]methanesulfonamidehydrochloride]
[1]
  effect on the QT interval: prolongating effect
  prolongation of the action potential: about double
